As usually defined, the Emax is the size of the effect at its maximum, as opposed to the concentration needed.

Experimental findings from patent US7160888B2, “[1,8]naphthyridin-2-ones and related compounds for the treatment of schizophrenia” (Warner Lambert Company LLC, priority 2003, dated 2007) are described below.

D2 receptor, sequence (P14416 whole entry): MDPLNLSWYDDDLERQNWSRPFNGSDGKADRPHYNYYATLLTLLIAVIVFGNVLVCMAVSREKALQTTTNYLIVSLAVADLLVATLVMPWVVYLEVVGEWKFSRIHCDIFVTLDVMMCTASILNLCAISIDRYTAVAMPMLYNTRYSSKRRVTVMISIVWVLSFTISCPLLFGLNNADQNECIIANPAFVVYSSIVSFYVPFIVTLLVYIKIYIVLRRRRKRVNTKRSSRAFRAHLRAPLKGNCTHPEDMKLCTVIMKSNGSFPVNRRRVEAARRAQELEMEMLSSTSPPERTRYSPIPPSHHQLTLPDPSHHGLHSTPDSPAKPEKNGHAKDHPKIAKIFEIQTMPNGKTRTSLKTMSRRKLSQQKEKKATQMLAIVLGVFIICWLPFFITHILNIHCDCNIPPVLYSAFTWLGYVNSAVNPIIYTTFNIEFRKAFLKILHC

One test concerns the target D2 receptor (Homo sapiens, UniProt P14416). The test is described as follows: [3H]Thymidine uptake assay for D2 intrinsic activity. The class given is cell-based. The conditions noted are these: Table 1; test compound 1 μM; 1 μM Quinpirole = 100% intrinsic activity.
Description: D2 intrinsic activity of title compounds of the Examples, below, was determined using the [^3H]thymidine uptake assay described below.
[^3H]Thymidine Uptake Assay for D2 Intrinsic Activity
Cells are serum deprived by washing twice with 200 μl of serum-free media. 90 μl serum-free media was added to each well. The plates ware incubated for two to three hours. 10 μl of serum-containing media, as a positive control, vehicle (serum-free media), negative control (an antagonist) or test compounds and standards (10 μl of a 10 μM solution for a final concentration of 1 μM) in serum-free media were added to wells. The plates are returned to the incubator. Eighteen hours later [^3H]thymidine is added (0.5 μCi/well in 10 μl of serum-free media) and the plates are returned to the incubator. […] The plates are returned to the incubator, once again. One hour later the assay is terminated by rapid filtration through Whatman GF/C glass fiber filters. Filters are washed four times with 500 ml of 50 mM Tris-HCl pH 7.0 buffer, for example, using a Brandel MLR-96T cell harvester. […] Intrinsic activity is defined as total uptake (1 μM Quinpirole) minus serum-free media (no uptake). Test compounds are compared to 1 μM Quinpirole (full DA agonist), which was classified as 100% intrinsic activity.
The molecule `Cc1c(F)ccc(N2CCN(CCCCCc3ccc4c(n3)NC(=O)CC4)CC2)c1Cl` [Example C15, 7-{5-[4-(2-Chloro-4-fluoro-3-methyl-phenyl)-piperazin-1-yl]-pentyl}-3,4-dihydro-1H-[1,8]naphthyridin-2-one] displayed an Emax at 1 µM of 8%.

As for `Cc1cccc(N2CCN(CCCCCc3ccc4c(n3)NC(=O)CC4)CC2)n1` [Example C16, 7-{5-[4-(6-Methyl-pyridin-2-yl)-piperazin-1-yl]-pentyl}-3,4-dihydro-1H-[1,8]naphthyridin-2-one], the Emax at 1 µM stood at 34%. As to `CCc1cccc(N2CCN(CCCCCc3ccc4c(n3)NC(=O)CC4)CC2)n1` [Example C17, 7-{5-[4-(6-Ethyl-pyridin-2-yl)-piperazin-1-yl]-pentyl}-3,4-dihydro-1H-[1,8]naphthyridin-2-one], the maximal response (Emax) at 1 µM amounted to 21%. `O=C1CCc2ccc(CCCCCN3CCN(c4cccc(C5CC5)n4)CC3)nc2N1` [Example C18, 7-{5-[4-(6-Cyclopropyl-pyridin-2-yl)-piperazin-1-yl]-pentyl}-3,4-dihydro-1H-[1,8]naphthyridin-2-one] displayed an Emax at 1 µM of 34%.

Molecule `Cc1cc(C)nc(N2CCN(CCCCCc3ccc4c(n3)NC(=O)CC4)CC2)c1` [Example C19, 7-{5-[4-(4,6-Dimethyl-pyridin-2-yl)-piperazin-1-yl]-pentyl}-3,4-dihydro-1H-[1,8]naphthyridin-2-one] returned an Emax at 1 µM of 13%. On the same count and under the same terms, with `Cc1cc2ccc(OCCCCN3CCN(c4cccc(Cl)c4Cl)CC3)nc2[nH]c1=O` [Example D4, 7-{4-[4-(2,3-Dichloro-phenyl)-piperazin-1-yl]-butoxy}-3-methyl-1H-[1,8]naphthyridin-2-one] the figure was 16%. Still for that read-out and setting: with `O=c1[nH]c2nc(OCCCCN3CCN(c4cccc(Cl)c4Cl)CC3)ccc2cc1F` [Example D9, 7-{4-[4-(2,3-Dichloro-phenyl)-piperazin-1-yl]-butoxy}-3-fluoro-1H-[1,8]naphthyridin-2-one] the figure was 15%. In turn, `O=c1[nH]c2nc(OCCCCN3CCN(c4cccc5ccccc45)CC3)ccc2cc1F` [Example D10, 3-Fluoro-7-[4-(4-naphthalen-1-yl-piperazin-1-yl)-butoxy]-1H-[1,8]naphthyridin-2-one] displayed an Emax at 1 µM of 22%. Same read-out and setting: with `O=c1[nH]c2nc(OCCCCN3CCN(c4cccc5ccccc45)CC3)ccc2cc1CC(F)(F)F` [Example D11, 7-[4-(4-Naphthalen-1-yl-piperazin-1-yl)-butoxy]-3-(2,2,2-trifluoro-ethyl)-1H-[1,8]naphthyridin-2-one] the figure was 30%; with `CC1(C)Cc2ccc(CCCCCN3CCN(c4cccc(Cl)c4Cl)CC3)nc2NC1=O` [Example D12, 7-{5-[4-(2,3-Dichloro-phenyl)-piperazin-1-yl]-pentyl}-3,3-dimethyl-3,4-dihydro-1H-[1,8]naphthyridin-2-one], 3%; with `CC1(C)Cc2ccc(OCCCCN3CCN(c4cccc(Cl)c4Cl)CC3)nc2NC1=O` [Example D13, 7-{4-[4-(2,3-Dichloro-phenyl)-piperazin-1-yl]-butoxy}-3,3-dimethyl-3,4-dihydro-1H-[1,8]naphthyridin-2-one], 19%. On the same count and under the same terms, with `CC1(C)C(=O)Nc2nc(OCCCCN3CCN(c4cccc(Cl)c4Cl)CC3)ccc2C1=O` [Example D14, 7-{4-[4-(2,3-Dichloro-phenyl)-piperazin-1-yl]-butoxy}-3,3-dimethyl-1H-[1,8]naphthyridine-2,4-dione] the figure was 3%; with `CC1(C)C(=O)Nc2nc(OCCCCN3CCN(c4cccc(Cl)c4Cl)CC3)ccc2C1O` (centres unmarked) [Example D15, 7-{4-[4-(2,3-Dichloro-phenyl)-piperazin-1-yl]-butoxy}-4-hydroxy-3,3-dimethyl-3,4-dihydro-1H-[1,8]naphthyridin-2-one], 25%. For `CC1(C)CC(=O)Nc2nc(OCCCCN3CCN(c4cccc5ccccc45)CC3)ccc21` [Example D16, 4,4-Dimethyl-7-[4-(4-naphthalen-1-yl-piperazin-1-yl)-butoxy]-3,4-dihydro-1H-[1,8]naphthyridin-2-one], the Emax at 1 µM is 31%. Turning to `CC1(C)CC(=O)Nc2nc(OCCCCN3CCN(c4cccc(Cl)c4Cl)CC3)ccc21` [Example D17, 7-{4-[4-(2,3-Dichloro-phenyl)-piperazin-1-yl]-butoxy}-4,4-dimethyl-3,4-dihydro-1H-[1,8]naphthyridin-2-one], the Emax at 1 µM worked out at 29%.

In turn, `CC1(C)CC(=O)Nc2nc(OCCCCN3CCN(c4cccc5c4CCCC5)CC3)ccc21` [Example D18, 4,4-Dimethyl-7-{4-[4-(5,6,7,8-tetrahydro-naphthalen-1-yl)-piperazin-1-yl]-butoxy}-3,4-dihydro-1H-[1,8]naphthyridin-2-one] had an Emax at 1 µM of 37%. On the same count and under the same terms, with `CC1(C)CC(=O)Nc2nc(OCCCCN3CCN(c4cccc5c4CCC5)CC3)ccc21` [Example D19, 7-[4-(4-Indan-4-yl-piperazin-1-yl)-butoxy]-4,4-dimethyl-3,4-dihydro-1H-[1,8]naphthyridin-2-one] the figure was 39%; with `Cc1cccc(N2CCN(CCCCOc3ccc4c(n3)NC(=O)CC4(C)C)CC2)c1Cl` [Example D20, 7-{4-[4-(2-Chloro-3-methyl-phenyl)-piperazin-1-yl]-butoxy}-4,4-dimethyl-3,4-dihydro-1H-[1,8]naphthyridin-2-one], 44%; with `Cc1c(Cl)cccc1N1CCN(CCCCOc2ccc3c(n2)NC(=O)CC3(C)C)CC1` [Example D21, 7-{4-[4-(3-Chloro-2-methyl-phenyl)-piperazin-1-yl]-butoxy}-4,4-dimethyl-3,4-dihydro-1H-[1,8]naphthyridin-2-one], 24%. `CC1(C)CC(=O)Nc2nc(OCCCCN3CCN(c4cccc(C5CC5)n4)CC3)ccc21` [Example D22, 7-{4-[4-(6-Cyclopropyl-pyridin-2-yl)-piperazin-1-yl]-butoxy}-4,4-dimethyl-3,4-dihydro-1H-[1,8]naphthyridin-2-one] gave an Emax at 1 µM of 42%.

`CCc1ccccc1N1CCN(CCCCOc2ccc3c(n2)NC(=O)CC3(C)C)CC1` [Example D23, 7-{4-[4-(2-Ethyl-phenyl)-piperazin-1-yl]-butoxy}-4,4-dimethyl-3,4-dihydro-1H-[1,8]naphthyridin-2-one] had a maximal effect (Emax) at 1 µM of 33%. `CC(C)COc1ccccc1N1CCN(CCCCOc2ccc3c(n2)NC(=O)CC3(C)C)CC1` [Example D24, 7-{4-[4-(2-Isobutoxy-phenyl)-piperazin-1-yl]-butoxy}-4,4-dimethyl-3,4-dihydro-1H-[1,8]naphthyridin-2-one] registered an Emax at 1 µM of 32%.

`CC(C)Oc1ccccc1N1CCN(CCCCOc2ccc3c(n2)NC(=O)CC3(C)C)CC1` [Example D25, 7-{4-[4-(2-Isopropoxy-phenyl)-piperazin-1-yl]-butoxy}-4,4-dimethyl-3,4-dihydro-1H-[1,8]naphthyridin-2-one] yielded an Emax at 1 µM of 31%. The molecule `O=C1CCc2cc(F)c(OCCCCN3CCN(c4cccc(Cl)c4Cl)CC3)nc2N1` [Example E3, 7-{4-[4-(2,3-Dichloro-phenyl)-piperazin-1-yl]-butoxy}-6-fluoro-3,4-dihydro-1H-[1,8]naphthyridin-2-one] yielded an Emax at 1 µM of 31%. `O=C1CCc2cc(F)c(OCCCCN3CCN(c4cccc5ccccc45)CC3)nc2N1` [Example E4, 6-Fluoro-7-[4-(4-naphthalen-1-yl-piperazin-1-yl)-butoxy]-3,4-dihydro-1H-[1,8]naphthyridin-2-one]: the Emax at 1 µM was 38%.

`O=C1CCc2cc(F)c(OCCCCN3CCN(c4cccc5c4CCC5)CC3)nc2N1` [Example E5, 6-Fluoro-7-[4-(4-indan-4-yl-piperazin-1-yl)-butoxy]-3,4-dihydro-1H-[1,8]naphthyridin-2-one]: the maximum response (Emax) at 1 µM stood at 21%. Molecule `O=C1CCc2cc(Cl)c(OCCCCN3CCN(c4cccc5ccccc45)CC3)nc2N1` [Example E6, 6-Chloro-7-[4-(4-naphthalen-1-yl-piperazin-1-yl)-butoxy]-3,4-dihydro-1H-[1,8]naphthyridin-2-one] had an Emax at 1 µM of 32%. For `O=C1CCc2cc(Br)c(OCCCCN3CCN(c4cccc(Cl)c4Cl)CC3)nc2N1` [Example E7, 6-Bromo-7-{4-[4-(2,3-dichloro-phenyl)-piperazin-1-yl]-butoxy}-3,4-dihydro-1H-[1,8]naphthyridin-2-one], the Emax at 1 µM turned out to be 19%. On to `O=C1CCc2cc(Br)c(OCCCCN3CCN(c4cccc5ccccc45)CC3)nc2N1` [Example E8, 6-Bromo-7-[4-(4-naphthalen-1-yl-piperazin-1-yl)-butoxy]-3,4-dihydro-1H-[1,8]naphthyridin-2-one], for which the Emax at 1 µM was 26%.

Staying with this test, now noted: Table 2; test compound 1 μM; 1 μM Quinpirole = 100% intrinsic activity.
Regarding `O=C1CCc2cc(F)c(OCCCCN3CCN(c4cccc5cccnc45)CC3)nc2N1` [Example D1′, 6-Fluoro-7-[4-(4-quinolin-8-yl-piperazin-1-yl)-butoxy]-3,4-dihydro-1H-[1,8]naphthyridin-2-one], the Emax at 1 µM was 24%. Consider `O=C1CCc2cc(F)c(OCCCCN3CCN(c4cccc5cnccc45)CC3)nc2N1` [Example D2′, 6-Fluoro-7-[4-(4-isoquinolin-5-yl-piperazin-1-yl)-butoxy]-3,4-dihydro-1H-[1,8]naphthyridin-2-one], for which the Emax at 1 µM is 40%. Consider `O=c1ncc2ccc(OCCCCN3CCN(c4cccc5c4OCCC5)CC3)nc2[nH]1` [Example E1′, 7-[4-(4-Chroman-8-yl-piperazin-1-yl)-butoxy]-1H-pyrido[2,3-d]pyrimidin-2-one], for which the maximal response (Emax) at 1 µM was determined as 12%. With `O=C1NCc2ccc(OCCCCN3CCN(c4cccc5c4OCCC5)CC3)nc2N1` [Example E2′, 7-[4-(4-Chroman-8-yl-piperazin-1-yl)-butoxy]-3,4-dihydro-1H-pyrido[2,3-d]pyrimidin-2-one], the Emax at 1 µM came to 9%.

On to `O=C1NCc2ccc(OCCCCN3CCN(c4cccc5c4OCC5)CC3)nc2N1` [Example E3′, 7-{4-[4-(2,3-Dihydro-benzofuran-7-yl)-piperazin-1-yl]-butoxy}-3,4-dihydro-1H-pyrido[2,3-d]pyrimidin-2-one], for which the Emax at 1 µM came to 8%. Same read-out and setting: with `O=C1NCc2ccc(OCCCCN3CCN(c4cccc5c4OCCCO5)CC3)nc2N1` [Example E4′, 7-{4-[4-(3,4-Dihydro-2H-benzo[b][1,4]dioxepin-6-yl)-piperazin-1-yl]-butoxy}-3,4-dihydro-1H-pyrido[2,3-d]pyrimidin-2-one] the figure was 26%.
